Measured values published in publication PMC12040169 (PLOS Biology, 2025).

Assay: in vitro
Settings: human, hela cells, % viability

| SMILES | viability at 28.5 h, 10 µM |
| --- | --- |
| O=[N+]([O-])c1c(N(CCO)CCO)cc(Cl)c2nonc12 [CBK261446] | 92.5% |
| CNC(=O)c1cccnc1N1CCN(CCCC(c2ccc(F)cc2)c2ccc(F)cc2)CC1 [CBK025309C] | 95% |
| OCCN1CCN(Cc2cc(Br)cs2)CC1 [CBK261758] | 96% |
| CCOC(=O)c1cnc(NS(=O)(=O)c2cccc(Cl)c2C)nc1C [CBK004707] | 105% |
| CCOc1ccccc1C(=O)N1CCC(c2cc(C(=O)NC(C)C)c3ccccc3n2)C1 (stereo not drawn) [CBK285918] | 106% |
| COc1ccc(CN(C(=O)CCN2C(=O)c3ccccc3S2(=O)=O)c2ccccc2O)cc1 [CBK265973] | 99.4% |
| O=C(Cn1ccc(=O)[nH]c1=O)Nc1ccc(OCC(F)(F)F)cc1 [CBK305879] | 98% |
| CCOc1cc(CNC2C3CC4CC(C3)CC2C4)cc(Cl)c1OCC(N)=O (stereo not drawn) [CBK265734C] | 103% |
| COc1cc(CNc2cc(-c3cccc4oc5ccccc5c34)ncn2)cc(OC)c1OC [CBK091177] | 90.3% |
| Cc1cccc(C(=O)N2CCCCC2CN(C)C)c1 (stereo not drawn) [CBK074171] | 81.7% |
| Cn1ncc2c(=O)n(Cc3nnsc3Cl)cnc21 [CBK237374] | 102% |
| CN(C)CCn1c2c(c3ccccc31)CCCn1cnnc1-2 [CBK267712C] | 97.2% |
| COc1ccccc1-c1ccccc1CC1(C(=O)NCc2ccc(F)cc2)CCOCC1 [CBK286425] | 90% |
| Cc1c(Cl)c([N+](=O)[O-])nn1CC(=O)N1CCN(Cc2ccccc2)CC1 [CBK261720] | 89.8% |
| C/C(=C\C(=O)Nc1ccc(O)cc1C(=O)O)c1ccccc1 [CBK265125] | 115% |
| Fc1ccc2c(-c3ccccc3)noc2c1 [CBK025975] | 86.8% |
| CCCN1CCN(C(=O)c2cnc(C)cn2)C(Cc2cccc(-c3cccs3)c2)C1=O (stereo not drawn) [CBK285678] | 87.2% |
| Cc1nn(Cc2nnc(-c3cccs3)o2)c(C)c1Br [CBK010809] | 87.7% |
| Cc1cccc(OC(=O)C2C(c3ccccc3)C(C(=O)O)C2c2ccccc2)c1 (stereo not drawn) [CBK263843] | 94% |
| O=C1Nc2ccc([N+](=O)[O-])cc2C1(O)N1CCCCC1 (stereo not drawn) [CBK262496] | 80.6% |
| Cc1ccc(S(=O)(=O)Nc2nc3ccc(S(=O)(=O)N4CCOCC4)cc3s2)cc1 [CBK266988] | 88.8% |

| SMILES | viability at 28.5 h, 10 µM |
| --- | --- |
| CCCOC(=O)c1c(NC(=O)C2C3C=CC(C3)C2C(=O)O)sc2c1CCC(C)C2 (stereo not drawn) [CBK265473] | 87.5% |
| C=CCn1c(Cc2csc(NC(=O)c3cc(S(=O)(=O)NC)ccc3C)n2)n[nH]c1=S [CBK297903] | 105% |
| CC(C)NC(=O)CN1CCC(Oc2nccnc2OCc2ccc(Cl)c(Cl)c2)CC1 [CBK153791] | 92.2% |
| Cc1nc(-c2cccnc2)[nH]c(=O)c1CC(=O)N(C)CC1CCCCC1 [CBK305785] | 91.4% |
| CC(C)C(=O)Nc1cc2cccnc2c(-c2ccsc2)n1 [CBK081259] | 100% |
| CNC(=O)c1sc2ccccc2c1C1CCN(Cc2cnc(-c3ccc(C)cc3)nc2)C1 (stereo not drawn) [CBK285883] | 108% |
| O=S(=O)(Nc1ccc2[nH]ncc2c1)c1ccc(Oc2ccccc2)cc1 [CBK062522] | 82.9% |
| c1ccc(COc2ccccc2-c2cc(N3CCN(c4ccccn4)CC3)ncn2)cc1 [CBK037793] | 97.4% |
| CCOC(=O)CCCCCCC(=O)N1CCN(c2ccc(C(F)(F)F)cc2)CC1 [CBK091327] | 107% |
| N#C/C(=C\c1ccc(OCC(=O)O)cc1)C(N)=S [CBK268917] | 102% |
| COc1ccc2nc(N3CCc4ccccc4C3)sc2c1 [CBK287493] | 102% |
| CSCCC(=O)N1CCC2(CCN(C(=O)Cc3c[nH]c4ccccc34)C2)C1 (stereo not drawn) [CBK131442] | 95.3% |
| N#CCCCN1CCCN(c2cc(OCC3COc4ccccc4O3)ncn2)CC1 (stereo not drawn) [CBK083391T] | 85.8% |
| O=C1c2cccc3cccc(c23)C(=O)N1CC1CCN(CC(O)COCC2COc3ccccc3O2)CC1 (stereo not drawn) [CBK074412C] | 100% |
| Nc1nnc(C(F)(F)F)o1 [CBK023457] | 113% |
| CCCCC(c1nnn[nH]1)n1nnc2ccccc21 (stereo not drawn) [CBK023526] | 93.6% |
| NC(=O)C1CN(C(=O)CN2CCCc3ccccc32)c2ccccc2O1 (stereo not drawn) [CBK295163] | 93.4% |
| CNc1ncc(CN(C)C(=O)Cn2nc(C)c3ccccc3c2=O)cn1 [CBK307704] | 85.5% |
| O=C(c1ccco1)N1CCN(c2ncccn2)CC1 [CBK144524] | 111% |
| O=C(NO)Nc1cc(Cl)cc(Cl)c1 [CBK016430] | 109% |
| CC(C)[C@@]1(C)SC(N[C@H]2C[C@H]3C[C@@H]2C[C@@H]3O)=NC1=O [CBK138400] | 102% |

| SMILES | viability at 28.5 h, 10 µM |
| --- | --- |
| Cc1ccc(OCC(=O)Nc2cc(Cl)ccc2O)cc1C [CBK265968] | 108% |
| CS(=O)(=O)N1CC2(CCN(C(=O)[C@@H]3CNC[C@H]3c3ccccc3)CC2)c2ccccc21 [CBK022572] | 104% |
| COc1ccccc1CCCN1CCC2(C1)NCCc1c2[nH]c2ccccc12 (stereo not drawn) [CBK040257] | 91% |
| CS(=O)(=O)Nc1ccc2cc(-c3ccsc3)cnc2n1 [CBK085665] | 102% |
| Cc1occc1SCC(=O)Nc1ccc(CN2CCOCC2)cc1 [CBK306453] | 89.9% |
| COc1ccc(-c2cc(C[C@H]3CNCC[C@H]3CC(=O)N3CCN(C)CC3)no2)cc1 [CBK289152] | 83.8% |
| O=[N+]([O-])c1ccc(CNCCc2c[nH]c3ccccc23)cc1 [CBK262275] | 80.4% |
| CN(C)C(=O)C1(Cc2ccccc2-c2cccs2)CCN(C(=O)Cc2ccccc2)CC1 [CBK285687] | 92.6% |
| NS(=O)(=O)c1ccc(Cl)c(Cl)c1 [CBK015652] | 118% |
| Cn1c(C(=O)N2CCc3ccccc3C2)cc2ccccc21 [CBK200337] | 96.7% |
| O=C1NC(c2ccccc2)=NC1(NS(=O)(=O)c1ccccc1)C(F)(F)F (stereo not drawn) [CBK267474] | 88.3% |
| C=CCn1c(Cc2csc(NC(=O)c3ccc([N+](=O)[O-])c(C)c3)n2)n[nH]c1=S [CBK295323] | 87% |
| Cc1nnnn1C(Cc1cccc(F)c1)C(=O)N1CC(C)CC(C)C1 (stereo not drawn) [CBK298262] | 96.3% |
| O=C(c1ccc2c(c1)N(Cc1ccc(F)cc1)C(=O)CO2)c1cccs1 [CBK286410] | 92.3% |
| CCN(C(=O)c1ccc(=O)[nH]c1)C(CC1CCCCC1)c1ccccc1 (stereo not drawn) [CBK062678] | 91.1% |
| COc1ccc(-c2cn(-c3ccc(OC)c(OC)c3)nn2)cc1 [CBK113001] | 121% |
| Cc1ccc(S(=O)(=O)Nc2ccc(Nc3cc(-c4cc(C(F)(F)F)cc(C(F)(F)F)c4)ncn3)cc2)cc1 [CBK090968] | 99.6% |
| CC(=O)c1cc(C(=O)NCc2ccc(C)cc2)n(C)c1 [CBK296750] | 85.1% |
| COc1ccccc1-c1cnc(N)c(NCc2ccccc2)n1 [CBK063357] | 94.3% |
| CCCCCSc1c(C#N)nc(N2CCOCC2)c2c1CC(C)(C)OC2 [CBK021748] | 92.1% |
| COc1cc(CNC(=O)NC(=O)C2CCN(CCc3c(-c4ccccc4)[nH]c4ccccc34)CC2)cc(OC)c1OC [CBK034859] | 91.7% |
